In ChEMBL document CHEMBL1949549, “Concise synthesis of (+)-conduritol F and inositol analogues from naturally available (+)-proto-quercitol and their glucosidase inhibitory activity” (Bioorg Med Chem Lett, 2012):

Experiments:
[1] = target: Lysosomal alpha-glucosidase (Rattus norvegicus) (UniProt Q6P7A9); test: Inhibition of rat intestinal alpha-glucosidase maltase using maltose as substrate at 10 mg/mL preincubated for 10 mins prior substrate addition measured after 40 mins by spectrophotometry
Sequence of Lysosomal alpha-glucosidase (Rattus norvegicus) (Q6P7A9 whole entry): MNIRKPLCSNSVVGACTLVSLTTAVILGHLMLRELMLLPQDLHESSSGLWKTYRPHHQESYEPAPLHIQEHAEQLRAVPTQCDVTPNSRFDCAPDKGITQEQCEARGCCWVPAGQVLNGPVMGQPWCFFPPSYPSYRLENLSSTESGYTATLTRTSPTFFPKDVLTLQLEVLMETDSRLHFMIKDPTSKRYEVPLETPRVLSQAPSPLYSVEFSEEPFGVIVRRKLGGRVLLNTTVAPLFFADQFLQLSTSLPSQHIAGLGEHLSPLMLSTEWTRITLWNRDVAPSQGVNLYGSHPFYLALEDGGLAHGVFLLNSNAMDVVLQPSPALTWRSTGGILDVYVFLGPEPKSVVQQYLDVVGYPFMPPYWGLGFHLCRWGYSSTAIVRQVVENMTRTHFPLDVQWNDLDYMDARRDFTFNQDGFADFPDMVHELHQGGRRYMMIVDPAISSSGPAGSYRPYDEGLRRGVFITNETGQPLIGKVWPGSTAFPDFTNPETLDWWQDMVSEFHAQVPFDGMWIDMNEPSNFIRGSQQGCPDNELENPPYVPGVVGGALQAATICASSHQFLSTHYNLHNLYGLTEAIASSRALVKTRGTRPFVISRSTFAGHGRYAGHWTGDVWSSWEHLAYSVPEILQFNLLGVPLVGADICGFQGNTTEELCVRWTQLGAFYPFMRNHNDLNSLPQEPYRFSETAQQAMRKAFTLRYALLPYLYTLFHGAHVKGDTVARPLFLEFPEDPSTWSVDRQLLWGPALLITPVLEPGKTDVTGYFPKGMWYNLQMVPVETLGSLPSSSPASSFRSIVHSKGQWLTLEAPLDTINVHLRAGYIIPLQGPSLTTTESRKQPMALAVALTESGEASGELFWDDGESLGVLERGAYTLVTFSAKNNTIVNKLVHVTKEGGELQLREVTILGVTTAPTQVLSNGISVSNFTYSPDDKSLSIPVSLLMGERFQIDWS

[2] = target: Sucrase-isomaltase, intestinal (Rattus norvegicus) (UniProt P23739); test: Inhibition of rat intestinal alpha-glucosidase sucrase using sucrose as substrate at 10 mg/mL preincubated for 10 mins prior substrate addition measured after 40 mins by spectrophotometry
Sequence of Sucrase-isomaltase, intestinal (Rattus norvegicus) (P23739 1-1013 limits assumed): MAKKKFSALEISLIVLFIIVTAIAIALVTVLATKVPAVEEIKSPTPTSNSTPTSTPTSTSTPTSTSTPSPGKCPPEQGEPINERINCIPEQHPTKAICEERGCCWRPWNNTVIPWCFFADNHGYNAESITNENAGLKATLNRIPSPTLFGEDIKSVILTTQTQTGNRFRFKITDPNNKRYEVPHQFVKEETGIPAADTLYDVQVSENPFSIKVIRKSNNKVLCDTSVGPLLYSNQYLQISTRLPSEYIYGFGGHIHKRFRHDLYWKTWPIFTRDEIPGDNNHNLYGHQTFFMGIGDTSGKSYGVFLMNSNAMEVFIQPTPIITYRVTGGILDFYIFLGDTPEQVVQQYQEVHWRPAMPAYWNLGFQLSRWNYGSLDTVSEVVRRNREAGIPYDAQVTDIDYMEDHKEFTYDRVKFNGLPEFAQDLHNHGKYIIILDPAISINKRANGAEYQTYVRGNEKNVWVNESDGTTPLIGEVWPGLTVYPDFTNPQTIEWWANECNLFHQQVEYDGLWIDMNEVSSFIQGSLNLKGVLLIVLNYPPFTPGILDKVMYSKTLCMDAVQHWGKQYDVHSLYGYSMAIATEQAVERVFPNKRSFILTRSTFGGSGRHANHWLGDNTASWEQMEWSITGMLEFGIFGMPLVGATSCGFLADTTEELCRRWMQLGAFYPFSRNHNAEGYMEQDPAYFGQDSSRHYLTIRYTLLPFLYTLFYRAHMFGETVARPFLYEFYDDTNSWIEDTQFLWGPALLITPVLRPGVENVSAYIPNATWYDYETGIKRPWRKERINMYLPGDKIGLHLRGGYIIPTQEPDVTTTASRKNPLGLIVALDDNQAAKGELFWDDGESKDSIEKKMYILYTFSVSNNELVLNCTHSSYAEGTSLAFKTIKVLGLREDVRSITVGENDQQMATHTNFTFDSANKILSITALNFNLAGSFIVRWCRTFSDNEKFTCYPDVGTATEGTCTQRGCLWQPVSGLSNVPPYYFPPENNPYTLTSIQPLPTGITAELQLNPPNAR
Sequence of Sucrase-isomaltase, intestinal (Rattus norvegicus) (P23739 1014-1841 limits assumed): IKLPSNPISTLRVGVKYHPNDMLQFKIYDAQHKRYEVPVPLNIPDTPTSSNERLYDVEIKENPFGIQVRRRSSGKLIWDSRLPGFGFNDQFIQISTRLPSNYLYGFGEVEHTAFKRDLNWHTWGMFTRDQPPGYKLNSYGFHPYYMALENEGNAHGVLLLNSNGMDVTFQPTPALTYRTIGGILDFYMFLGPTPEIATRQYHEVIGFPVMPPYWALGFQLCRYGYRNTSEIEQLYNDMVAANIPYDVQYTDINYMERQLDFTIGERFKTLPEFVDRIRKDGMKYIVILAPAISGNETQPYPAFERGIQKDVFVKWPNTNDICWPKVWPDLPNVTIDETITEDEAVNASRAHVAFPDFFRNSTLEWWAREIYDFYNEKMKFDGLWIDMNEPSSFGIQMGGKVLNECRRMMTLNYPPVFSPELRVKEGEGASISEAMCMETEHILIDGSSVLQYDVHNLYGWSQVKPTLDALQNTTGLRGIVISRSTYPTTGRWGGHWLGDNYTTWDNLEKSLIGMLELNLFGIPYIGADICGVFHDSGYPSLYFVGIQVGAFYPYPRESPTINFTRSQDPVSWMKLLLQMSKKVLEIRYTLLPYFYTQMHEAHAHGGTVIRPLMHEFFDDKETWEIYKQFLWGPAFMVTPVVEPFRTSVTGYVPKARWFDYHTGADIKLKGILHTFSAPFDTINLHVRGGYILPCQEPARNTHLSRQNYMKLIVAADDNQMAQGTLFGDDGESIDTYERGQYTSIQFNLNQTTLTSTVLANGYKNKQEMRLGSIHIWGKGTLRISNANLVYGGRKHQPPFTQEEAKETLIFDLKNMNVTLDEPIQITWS

Saccharomyces cerevisiae [3] = test: Ratio of acarbose IC50 to compound IC50 for Baker's yeast Alpha-glucosidase-1
Beta-galactosidase = target: T1, Beta-galactosidase (Homo sapiens, UniProt P16278); test: Inhibition of beta-galactosidase
T1 sequence (P16278 whole entry): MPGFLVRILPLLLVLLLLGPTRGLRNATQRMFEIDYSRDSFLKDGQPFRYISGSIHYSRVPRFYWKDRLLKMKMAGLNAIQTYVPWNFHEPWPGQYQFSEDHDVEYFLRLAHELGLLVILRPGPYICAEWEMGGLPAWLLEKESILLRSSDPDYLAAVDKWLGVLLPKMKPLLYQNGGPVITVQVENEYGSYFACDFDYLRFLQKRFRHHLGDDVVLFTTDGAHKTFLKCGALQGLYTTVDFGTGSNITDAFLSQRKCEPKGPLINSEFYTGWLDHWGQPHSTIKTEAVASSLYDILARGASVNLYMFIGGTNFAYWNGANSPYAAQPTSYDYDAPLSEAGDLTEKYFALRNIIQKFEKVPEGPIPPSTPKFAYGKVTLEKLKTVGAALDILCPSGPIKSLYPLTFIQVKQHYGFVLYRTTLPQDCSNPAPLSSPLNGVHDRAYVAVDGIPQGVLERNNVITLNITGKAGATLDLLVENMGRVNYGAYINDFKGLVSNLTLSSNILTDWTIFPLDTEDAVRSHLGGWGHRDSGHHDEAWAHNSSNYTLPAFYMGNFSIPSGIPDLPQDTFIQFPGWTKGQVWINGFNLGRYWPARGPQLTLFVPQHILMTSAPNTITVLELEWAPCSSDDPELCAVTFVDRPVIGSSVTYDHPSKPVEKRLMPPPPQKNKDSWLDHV

[4] = Inhibition of Baker's yeast Alpha-glucosidase-1 using p-nitrophenyl-alpha-D-glucopyranoside as substrate preincubated for 10 mins prior substrate addition measured after 20 mins by spectrophotometry; parameters: species or system Saccharomyces cerevisiae
Saccharomyces cerevisiae [5] = test: Inhibition of Baker's yeast Alpha-glucosidase-1 using p-nitrophenyl-alpha-D-glucopyranoside as substrate at 10 mg/mL preincubated for 10 mins prior substrate addition measured after 20 mins by spectrophotometry

| SMILES | inhibition [1] | inhibition [2] | Ratio IC50 (Saccharomyces cerevisiae [3]) | IC50 (Beta-galactosidase) | IC50 [4] | inhibition (Saccharomyces cerevisiae [5]) |
| --- | --- | --- | --- | --- | --- | --- |
| O[C@@H]1[C@@H](O)[C@@H](O)C=C[C@H]1O [listing 1 of 2 here] | < 30% | < 30% | 5 |  |  |  |
| O[C@H]1[C@H](O)[C@H](O)[C@@H](O)[C@H](O)[C@H]1O | < 30% | < 30% |  |  | 1260 µM |  |
| O[C@@H]1[C@@H](O)[C@@H](O)C=C[C@H]1O [listing 2 of 2 here] |  |  |  |  | 86.1 µM |  |
| OC1[C@@H](O)[C@H](O)C[C@@H](O)[C@@H]1O (stereo not given in full) | < 30% | < 30% |  |  |  | < 30% |

Other lines, results leading:

| inhibition [1] | inhibition [2] | Ratio IC50 (Saccharomyces cerevisiae [3]) | IC50 (Beta-galactosidase) | IC50 [4] | inhibition (Saccharomyces cerevisiae [5]) | SMILES |
| --- | --- | --- | --- | --- | --- | --- |
|  |  |  | 600 µM |  |  | O[C@@H]1[C@@H](O)[C@@H](O)C=C[C@H]1O (relative stereo) |
| < 30% | < 30% |  |  | 476 µM |  | O[C@H]1[C@@H](O)[C@@H](O)[C@@H](O)[C@@H](O)[C@@H]1O |
|  |  |  |  | 404 µM |  | C[C@H]1O[C@H](O[C@H]2[C@H](O)[C@@H](O)[C@@H](O[C@H]3[C@H](O)[C@@H](O)C(O)O[C@@H]3CO)O[C@@H]2CO)[C@H](O)[C@@H](O)[C@@H]1N[C@H]1C=C(CO)[C@@H](O)[C@H](O)[C@H]1O (stereo not given in full) [ACARBOSE] |
